According to patent US20170050957A1, “4-AMINO-6-(HETEROCYCLIC)PICOLINATES AND 6-AMINO-2-(HETEROCYCLIC)PYRIMIDINE-4-CARBOXYLATES AND THEIR USE AS HERBICIDES” (Dow AgroSciences LLC, priority 2013, published 2017):
Read-outs that look alike come from different tables or passages of the source.

Key:
[1] = tested on: Key Broadleaf Weed and Crop Species; test: Post-emergent Test II herbicidal activity (Table 15); type: in vivo; conditions: post-emergence, 336 h, 14 d; for pest or weed control at 35 g/ha: 35 g ai/ha; for pest or weed control at 70 g/ha: 70 g ai/ha; for pest or weed control at 140 g/ha: 140 g ai/ha
In short: (§1)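 Plants grown in greenhouse (~15 h photoperiod, 23-29 °C day, 22-28 °C night) to first or second true leaf stage, then sprayed post-emergence at 187 L/ha with a high rate and 1/2×, 1/4×, 1/8× and 1/16× dilutions. Injury scored visually after 14 d, 0-100% versus untreated plants.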

[2] = tested on: Key Grass and Sedge Weeds as well as Grass Crops; test: Post-emergent Test II herbicidal activity (Table 16); type: in vivo; conditions: post-emergence, 336 h, 14 d; for pest or weed control at 35 g/ha: 35 g ai/ha; for pest or weed control at 70 g/ha: 70 g ai/ha; for pest or weed control at 140 g/ha: 140 g ai/ha
In short: as §1

[3] = Abutilon theophrasti, velvetleaf (Abutilon theophrasti), read-out: Visual Growth Reduction (%) 14 Days After Application, ABUTH
[4] = Amaranthus retroflexus, redroot pigweed (Amaranthus retroflexus), read-out: Visual Growth Reduction (%) 14 Days After Application, AMARE
[5] = Brassica napus, oilseed rape, canola (Brassica napus), read-out: Visual Growth Reduction (%) 14 Days After Application, BRSNN
[6] = Chenopodium album, lambsquarters (Chenopodium album), read-out: Visual Growth Reduction (%) 14 Days After Application, CHEAL
[7] = Euphorbia heterophylla, wild poinsettia (Euphorbia heterophylla), read-out: Visual Growth Reduction (%) 14 Days After Application, EPHHL
[8] = Helianthus annuus, sunflower (Helianthus annuus), read-out: Visual Growth Reduction (%) 14 Days After Application, HELAN
[9] = Cyperus esculentus, yellow nutsedge (Cyperus esculentus), read-out: Visual Growth Reduction (%) 14 Days After Application, CYPES
[10] = Echinochloa crus-galli, barnyardgrass (Echinochloa crus-galli), read-out: Visual Growth Reduction (%) 14 Days After Application, ECHCG
[11] = Oryza sativa, rice (Oryza sativa), read-out: Visual Growth Reduction (%) 14 Days After Application, ORYSA
[12] = Setaria faberi, giant foxtail (Setaria faberi), read-out: Visual Growth Reduction (%) 14 Days After Application, SETFA
[13] = Triticum aestivum, wheat, spring (Triticum aestivum), read-out: Visual Growth Reduction (%) 14 Days After Application, TRZAS
[14] = Zea mays, maize, corn (Zea mays), read-out: Visual Growth Reduction (%) 14 Days After Application, ZEAMX

With COC(=O)c1nc(-c2ccc3sccc3c2)c(F)c(N)c1Cl [Compound 3.03] the pest or weed control at 35 g/ha [1, 3] was 95 to 100%, the pest or weed control at 70 g/ha [1, 3] was 95 to 100% and the pest or weed control at 140 g/ha [1, 3] was 95 to 100%. For the same compound, the pest or weed control at 35 g/ha [1, 4] was 95 to 100%, the pest or weed control at 70 g/ha [1, 4] was 95 to 100% and the pest or weed control at 140 g/ha [1, 4] was 95 to 100%. It also gave a pest or weed control at 35 g/ha [1, 5] of 0 to 29%, a pest or weed control at 70 g/ha [1, 5] of 60 to 74% and a pest or weed control at 140 g/ha [1, 5] of 60 to 74%. It also gave a pest or weed control at 35 g/ha [1, 6] of 95 to 100%, a pest or weed control at 70 g/ha [1, 6] of 95 to 100% and a pest or weed control at 140 g/ha [1, 6] of 95 to 100%. The pest or weed control at 35 g/ha [1, 7] was 95 to 100%, the pest or weed control at 70 g/ha [1, 7] was 95 to 100% and the pest or weed control at 140 g/ha [1, 7] was 95 to 100%. It also gave a pest or weed control at 35 g/ha [1, 8] of 95 to 100%, a pest or weed control at 70 g/ha [1, 8] of 95 to 100% and a pest or weed control at 140 g/ha [1, 8] of 95 to 100%. The pest or weed control at 35 g/ha [2, 9] was 45 to 59%, the pest or weed control at 70 g/ha [2, 9] was 45 to 59% and the pest or weed control at 140 g/ha [2, 9] was 45 to 59%. It also gave a pest or weed control at 35 g/ha [2, 10] of 85 to 94%, a pest or weed control at 70 g/ha [2, 10] of 95 to 100% and a pest or weed control at 140 g/ha [2, 10] of 95 to 100%. The pest or weed control at 35 g/ha [2, 11] was 0 to 29%, the pest or weed control at 70 g/ha [2, 11] was 0 to 29% and the pest or weed control at 140 g/ha [2, 11] was 0 to 29%. The pest or weed control at 35 g/ha [2, 12] was 0 to 29%, the pest or weed control at 70 g/ha [2, 12] was 85 to 94% and the pest or weed control at 140 g/ha [2, 12] was 85 to 94%. The pest or weed control at 35 g/ha [2, 13] was 0 to 29%, the pest or weed control at 70 g/ha [2, 13] was 30 to 44% and the pest or weed control at 140 g/ha [2, 13] was 45 to 59%. It also gave a pest or weed control at 35 g/ha [2, 14] of 95 to 100%, a pest or weed control at 70 g/ha [2, 14] of 95 to 100% and a pest or weed control at 140 g/ha [2, 14] of 95 to 100%. The melting point was 84 to 85 °C.
Compound COC(=O)c1nc(-c2ccc3sccc3c2)c(C)c(N)c1Cl [Compound 3.06] has a pest or weed control at 35 g/ha [1, 3] of 45 to 59%, a pest or weed control at 70 g/ha [1, 3] of 60 to 74% and a pest or weed control at 140 g/ha [1, 3] of 85 to 94%. It also gave a pest or weed control at 35 g/ha [1, 4] of 85 to 94%, a pest or weed control at 70 g/ha [1, 4] of 85 to 94% and a pest or weed control at 140 g/ha [1, 4] of 95 to 100%. It also gave a pest or weed control at 35 g/ha [1, 5] of 30 to 44%, a pest or weed control at 70 g/ha [1, 5] of 30 to 44% and a pest or weed control at 140 g/ha [1, 5] of 45 to 59%. It also gave a pest or weed control at 35 g/ha [1, 6] of 30 to 44%, a pest or weed control at 70 g/ha [1, 6] of 60 to 74% and a pest or weed control at 140 g/ha [1, 6] of 60 to 74%. The pest or weed control at 35 g/ha [1, 7] was 0 to 29%, the pest or weed control at 70 g/ha [1, 7] was 0 to 29% and the pest or weed control at 140 g/ha [1, 7] was 30 to 44%. It also gave a pest or weed control at 35 g/ha [1, 8] of 95 to 100%, a pest or weed control at 70 g/ha [1, 8] of 95 to 100% and a pest or weed control at 140 g/ha [1, 8] of 95 to 100%. It also gave a pest or weed control at 35 g/ha [2, 9] of 0 to 29%, a pest or weed control at 70 g/ha [2, 9] of 0 to 29% and a pest or weed control at 140 g/ha [2, 9] of 0 to 29%. The pest or weed control at 35 g/ha [2, 10] was 0 to 29%, the pest or weed control at 70 g/ha [2, 10] was 0 to 29% and the pest or weed control at 140 g/ha [2, 10] was 0 to 29%. The pest or weed control at 35 g/ha [2, 11] was 0 to 29%, the pest or weed control at 70 g/ha [2, 11] was 0 to 29% and the pest or weed control at 140 g/ha [2, 11] was 0 to 29%. It also gave a pest or weed control at 35 g/ha [2, 12] of 0 to 29%, a pest or weed control at 70 g/ha [2, 12] of 0 to 29% and a pest or weed control at 140 g/ha [2, 12] of 0 to 29%. The pest or weed control at 35 g/ha [2, 13] was 0 to 29%, the pest or weed control at 70 g/ha [2, 13] was 0 to 29% and the pest or weed control at 140 g/ha [2, 13] was 0 to 29%. For the same compound, the pest or weed control at 35 g/ha [2, 14] was 0 to 29%, the pest or weed control at 70 g/ha [2, 14] was 0 to 29% and the pest or weed control at 140 g/ha [2, 14] was 0 to 29%. It also gave a melting point of 155 to 159 °C.
